Data reported in US11530190B2, “Compounds for treating mitochondrial disease” (Khondrion IP B.V., priority 2015, dated 2022).

What was measured:
[1] = test system: primary human fibroblasts derived from a Complex-I deficient patient; assay: Protection against oxidative stress-induced (BSO) cell death, Calcein-AM viability; assay type: cell-based
From the text: (§1) Methods: To assess the ability of the compounds to protect patient cells against oxidative stress-induced cell death an assay was established using stressed primary human fibroblasts derived from a Complex-I deficient patient. Utilizing the inherent oxidative stress of fibroblasts from patients with mitochondrial disease, their oxidative burden was further increased by depleting cellular glutathione with an inhibitor of glutathione synthesis, L-buthionine-(S,R)-sulfoximine (BSO).
Cells were seeded at a density of 3000 cells/well in a 96-well format plate and incubated with increasing concentrations of compounds in combination with BSO (200 μM, Sigma-Aldrich). Two days after treatment, the cells were washed twice and stained with a solution of 5 μM Calcein-AM (Life technologies C3100MP) during 25 min in 199 medium without phenol red (Life technologies, 11043-023) at 37° C., 5% CO2. After 2 washes with PBS the plate was read on a fluorescence plate reader (Fluostar Omega, BMG labtech) and the percentage of cell viability was determined as a function of fluorescence intensity (FIG. 2).

[2] = test system: fibroblasts from healthy individuals; assay: Effect of BSO on viability of fibroblasts from healthy individuals, Calcein-AM; assay type: cell-based, human; settings: BSO 200 μM, 48 h; FIG. 1
Protocol: FIG. 1. Effect of L-buthionine-(S,R)-sulfoximine (BSO), an inhibitor of glutathione synthesis, on the viability of primary human fibroblasts derived from healthy individuals or derived from Complex-I deficient patients. Two days after treatment of 48 h with 200 μM BSO, cells were washed and stained with Calcein-AM. Cell viability was determined as a function of fluorescence intensity.
as §1

[3] = test system: Primary human fibroblasts derived from a patient with mitochondrial disease; assay: Cellular ROS levels after H2O2 induction, CM-H2DCFDA fluorescence; assay type: cell-based; settings: compound 10 μM, H2O2 100 μM; FIG. 3
From the text: Methods: CM-H2DCFDA is a cell-permeable reporter molecule for reactive oxygen species (ROS) that is converted into non-fluorescent and membrane-impermeable CM-H2DCF following removal of its acetate groups by intracellular esterases. Upon oxidation by ROS, CM-H2DCF is converted into fluorescent CM-DCF. It is widely accepted that a wide variety of ROS can be responsible for the CM-H2DCF oxidation, making it a suitable reporter of cellular oxidant levels. The average cellular CM-DCF fluorescence intensity is considered an indirect measure of cellular ROS levels.
The effect of the compounds on the intracellular ROS levels was measured in response to an induction of ROS by hydrogen peroxide. Primary human fibroblasts derived from a patient with mitochondrial disease were seeded at a density of 2500 cells/well in a 96-well format plate. […] Wells without cells were used to correct for the background fluorescence. The plate was read on a fluorescence plate reader (Fluostar Omega, BMG labtech) in a kinetic mode with a 2 min interval cycle. After 4 cycles, H2O2 (final concentration 100 μM) was added using onboard injectors and the fluorescence measurement was resumed for 1 hour. After background correction the fluorescence intensities were plotted as a function of time.

[4] = test system: Primary human fibroblasts obtained from a patient with mitochondrial disease; assay: Intracellular superoxide production, hydroethidine (HEt) fluorescence microscopy; assay type: cell-based; settings: approximately 24 hours with increasing concentrations, HEt 10 μM; FIG. 4A-E
Protocol: Methods: HEt (Hydroethidine) is a non-fluorescent compound, which can enter the cells freely. There it is oxidized by superoxide to its fluorescent products E^+ and 2OHE^+, which accumulate in negatively charged cellular compartments (i.e. nucleus and mitochondria). E^++2OHE^+ fluorescence is thus considered a measure of superoxide production within the cell.
The effect of the compounds on the intracellular superoxide levels was measured. Primary human fibroblasts obtained from a patient with mitochondrial disease were seeded at a density of 3000 cells/well in a 96-well format. The following day, the culture medium was replaced with 100 μl medium containing the compounds at different concentrations. After approximately 24 hours the cells were incubated with 100 μL medium without FBS and phenol red and containing HEt at a final concentration 10 μM (Life Technologies). The cell culture plate containing HEt was placed for 10 minutes at 37° C., 5% CO2. Next, the cells were washed twice with medium, placed in culture medium without FBS and phenol red and visualized by fluorescence microscopy (BD Pathway 855, BDBiosciences). From the obtained images superoxide levels were analysed using Image Pro plus (Media Cybernetics) software.

[5] = test system: cultured healthy human skin fibroblasts; settings: cited from earlier work

| SMILES | H2O2-mediated induction of cellular ROS levels (CM-DCF fluorescence) [3] | superoxide scavenging / superoxide levels (HEt fluorescence) [4] | further results |
| --- | --- | --- | --- |
| CCCCS(=N)(=O)CCC(N)C(=O)O [BSO, L-buthionine-(S,R)-sulfoximine] |  |  | viability of patient fibroblasts after BSO insult ([1]; BSO 200 μM alone, within 48 h, FIG. 1): complete cell death; viability of fibroblasts from healthy individuals after BSO insult [2]: retained full viability |
| CC(C)=CCC/C(C)=C/CC/C(C)=C/CC[C@@](C)(O)CCC1=C(C)C(=O)C(C)=C(C)C1=O [EPI743] | slightly diminished | only a limited ability to scavenge superoxide | EC50 ([1]; 200 μM BSO, two days, Calcein-AM cell viability, formate salt, read-out: EC50 in protecting the cells against oxidative stress-induced cell death): 35.3 nM |
| COC1=C(OC)C(=O)C(CCCCCCCCCCO)=C(C)C1=O [Idebenone] | slightly diminished | only a limited ability to scavenge superoxide |  |
| Cc1c(C)c2c(c(C)c1O)CCC(C)(C(=O)O)O2 (centres unmarked) [Trolox, 6-hydroxy-2,5,7,8-tetramethylchroman-2-carboxylic acid] |  |  | levels of ROS [5]: reduces the levels of ROS |
